Where a SMILES comes first, the peptide text is derived from it. Where no end group is shown, it is not given here.

Data set [1] deals with α-glucosidase. Nature of the data set: Simulated gastrointestinal digestion in vitro, residual α-glucosidase inhibitory activity. It counts as in vitro ADME. The note with it: 37 °C; for loss of α-glucosidase inhibitory activity after SGID: SGF 120 min then SIF 120 min; for loss of α-glucosidase inhibitory activity after simulated gastric digestion (SGD): SGF, 120 min. As to the method:
(§1) The α-glucosidase inhibition activity was performed as described in the literature. In a 96-well enzyme plate, 40 μL of PBS buffer solution (pH 6.86, 0.1 M), 40 μL of sample solution, and 80 μL of α-glucosidase solution (0.2 U/mL) were added, mixed well, and reacted at 37 °C for 15 min. Next, 80 μL of 2.5 mM p-nitrophenyl-α-D-glucopyranoside (pNPG, 0.1 M, pH 6.8 in PBS) was added, mixed well, and reacted at 37 °C for 20 min. Finally, 150 μL of 0.2 M Na2CO3 solution was added to stop the reaction, which was then measured for absorbance values at 405 nm A1. Data were collected for three parallel experiments. (1) α-glucosidase inhibitory activity (%) = A0− (A 1− A2)/ A0 × 100% where A0 is the absorbance of an equal amount of PBS buffer in place of the sample; A2 is the absorbance of an equal amount of PBS buffer in place of the α-glucosidase solution and pNPG solution.
The method of simulated gastrointestinal digestion (SGID) follows the previous method with slight modifications. Simulated gastric fluid (SGFs) and simulated intestinal fluid (SIFs) are both purchased from Shanghai Yuanye Biotechnology Co., Ltd., as previously mentioned. In brief, the synthesized peptide LLVLYYEY and LLLLPSYSEF was pre-dissolved to 4 mg/mL in pure water. LLVLYYEY and LLLLPSYSEF aqueous solution was mixed with SGFs (1:1, v/v) and digested at 37 °C for 120 min. SIFs (1:1, v/v) was then mixed and the mixture was incubated for 120 min. After 120 min of incubation, the pH was adjusted to 7 by NaOH (1M) to stop the simulated gastric digestion (SGD) phase; after 240 min of incubation the simulated intestinal digestion (SID) phase was stopped by a boiling water bath for 10 min.

Data set [2] addresses α-glucosidase. Nature of the data set: α-glucosidase inhibition assay in vitro (pNPG substrate). It counts as biochemical. The note with it: synthesized peptides; read-out: α-glucosidase Inhibitory Activity (IC50). How it is done:
as §1

“LLVLYYEY [LLVLYYEY, Leu-Leu-Val-Leu-Tyr-Tyr-Glu-Tyr]”: in data set [1], the “loss of α-glucosidase inhibitory activity after SGID” value is reported as “significant loss of activity” and the “loss of α-glucosidase inhibitory activity after simulated gastric digestion (SGD)” value is reported as “essentially no loss”.

What is called IC50 is the concentration that gives 50% inhibition. In the case of `CC(C)C[C@H](N)C(=O)N[C@@H](CS)C(=O)N[C@@H](CC(=O)O)C(=O)N[C@@H](CCC(N)=O)C(=O)N[C@@H](CS)C(=O)N1CCC[C@H]1C(=O)N1CCC[C@H]1C(=O)N[C@@H](Cc1c[nH]cn1)C(=O)N[C@@H](C)C(=O)O` [LCDQCPPHA, Leu-Cys-Asp-Gln-Cys-Pro-Pro-His-Ala] (H-LCDQCPPHA-OH), in data set [2], the concentration for half-maximal inhibition (IC50) was 4.32 mM.

In the case of “LLLLPSYSEF [LLLLPSYSEF, Leu-Leu-Leu-Leu-Pro-Ser-Tyr-Ser-Glu-Phe]”, in data set [1], the “loss of α-glucosidase inhibitory activity after SGID” value is “significant loss of activity” and the “loss of α-glucosidase inhibitory activity after simulated gastric digestion (SGD)” value is on record as “essentially no loss”.

Take `C[C@H](N)C(=O)N[C@H](C(=O)N[C@@H](CC(N)=O)C(=O)N1CCC[C@H]1C(=O)N1CCC[C@H]1C(=O)N[C@@H](CS)C(=O)N[C@@H](CS)C(=O)N[C@@H](CCC(N)=O)C(=O)N1CCC[C@H]1C(=O)O)[C@@H](C)O` [ATNPPCCQP, Ala-Thr-Asn-Pro-Pro-Cys-Cys-Gln-Pro] (H-ATNPPCCQP-OH): the IC50 in data set [2] was more than 10 mM.

(Values after PMC9857891, “Optimization and Molecular Mechanism of Novel α-Glucosidase Inhibitory Peptides Derived from Camellia Seed Cake through Enzymatic Hydrolysis” (Foods, 2023).)
